Laboratory results: patent US8114901B2, “Crystalline 2,5-dione-3-(1-methyl-1H-indol-3-yl)-4-[1-(pyridin-2-ylmethyl)piperidin-4-yl]-1H-indol-3-yl]-1H-pyrrole mono-hydrochloride” (Eli Lilly and Company, priority 2002, dated 2012)
Where “and” joins values, the source holds several entries; their conditions need not be identical. Equal entries are not always repeated. Where two headings read alike, the source gives them in different places.

Assays:
[1] = Hygroscopicity / moisture sorption (weight gain vs RH); assay type: physicochemical
Source text: The different water contents prompted an investigation into the moisture sorption characteristics of those lots of crystalline FB-HCl that were not anhydrous. […] Crystalline FB-HCl material capable of water sorption is hereafter referred to as “hygroscopic F-I”.

[2] = Equilibrium solubility in aqueous media at ambient temperature, HPLC after 24 hours; assay type: physicochemical; conditions: for Amt Dissolved: 24 hours equilibration
Method: Extensive equilibrium solubility determinations were undertaken for both hygroscopic and anhydrous F-I in a variety of aqueous media at ambient temperature. Additionally, the equilibrium solubility of FB Form I was measured at ambient temperature.

[3] = Intrinsic dissolution of 100 mg compact; assay type: physicochemical; conditions: for % of 100 mg Compact Dissolved in 10 Minutes: Dissolution Medium 0.1 N HCl
Method: To confirm that variability in the hygroscopicity of F-I lots should not adversely impact bioavailability, intrinsic dissolution rates were also measured for the hygroscopic and anhydrous F-I. For comparison purposes, the intrinsic dissolution rate of FB Form I was also measured.

[4] = system: VEGF-induced neo-angiogenesis; experiment: VEGF-induced neo-angiogenesis in the rat corneal micropocket; assay type: in vivo; conditions: administered orally for 10 days
Source text: (§1) The salt of the present invention is an inhibitor of vascular endothelial growth factor (VEGF)-induced angiogenesis. […] These assay systems are more fully described in WO 02/02116. The salt of the present invention is, thus, effective in treating cancer and inhibiting tumor growth.

[5] = system: VEGF-stimulated proliferation of HUVEC cells; experiment: VEGF-stimulated proliferation of HUVEC cells in culture; assay type: cell-based; conditions: 72 hours of exposure
Source text: as §1

[6] = Plasma pharmacokinetics after single oral gavage, cross-over design; assay type: in vivo; conditions: fed female beagle dogs; for AUC0-24 / AUC0-inf / Cmax: single oral 5 mg/kg by gavage, individual animals 1-6, 5 mg/kg
Method: The 6 dogs were randomized into two treatment groups to receive single doses of FB Form I followed by a single dose of F-I two weeks later, or vice versa. On Days 1 and 14, 3 dogs received FB Form 1 and 3 dogs received F-I, and blood samples were collected at 0.5, 1, 2, 3, 4, 8, 12 and 24 hours post dosing. Concentrations of FB Form I were determined by liquid chromatography tandem mass spectrometry.

[7] = 0.01 N HCl, ambient temperature
[8] = SIF, fed pH 5.0, ambient temperature
[9] = pH 2.2 buffer, ambient temperature

Compound	hygroscopicity [1]	Filtrate pH ([2]; 0.01 N HCl)	Amt Dissolved [2, 7]	Filtrate pH ([2]; SIF, fed pH 5.0)	Amt Dissolved [2, 8]	Filtrate pH ([2]; pH 2.2 buffer)	Amt Dissolved [2, 9]	dissolution of a 100 mg compact within 10 minutes [3]	% of 100 mg Compact Dissolved in 10 Minutes [3]	further results
tartrate	only slightly hygroscopic	–	–	–	–	–	–	–	–	weight gain ([1]; at RH's up to 70%): ~1%
Cl.Cn1cc(C2=C(C3CCN(Cc4ccccn4)CC3)C(=O)NC2=O)c2ccccc21 [Hygroscopic F-I]	–	2.25	0.046 mg/mL and 0.053 mg/mL	4.93	0.014 mg/mL and 0.015 mg/mL	2.26	0.324 mg/mL and 0.352 mg/mL	no appreciable dissolution	<<0.5%	maximum moisture sorption ([1]; at 40% RH): 1.6%
Cl.Cn1cc(C2=C(c3cn(C4CCN(Cc5ccccn5)CC4)c4ccccc34)C(=O)NC2=O)c2ccccc21 [F-I]	not significantly hygroscopic	–	–	–	–	–	–	–	–	inhibition of VEGF-induced neo-angiogenesis in the rat corneal micropocket [4]: highly effective inhibitor; weight gain ([1]; at 95% RH): < 2%; hygroscopicity ([1]; between 0-70% RH): relatively non-hygroscopic; inhibition of VEGF-stimulated proliferation of HUVEC cells [5]: potent inhibitor; plasma exposure (AUC 0 to 24 hr and 0 to infinity) compared with FB Form I ([6]; single oral 5 mg/kg): significantly higher; AUC0-24 ([6]; mono-hydrochloride): 3.5923 µM·h and 1.735 µM·h and 2.97 µM·h and 4.0644 µM·h and 6.1501 µM·h and 2.9445 µM·h; AUC0-inf ([6]; mono-hydrochloride): 3.8286 µM·h and 1.7984 µM·h and 3.0161 µM·h and 4.2008 µM·h and 6.6308 µM·h and 2.9983 µM·h; Cmax ([6]; mono-hydrochloride): 481 nM and 327 nM and 679 nM and 501 nM and 774 nM and 450 nM
Cn1cc(C2=C(c3cn(C4CCN(Cc5ccccn5)CC4)c4ccccc34)C(=O)NC2=O)c2ccccc21 [FB Form I]	–	2.20	0.279 mg/mL and 0.355 mg/mL	4.94	0.073 mg/mL and 0.074 mg/mL	2.21	0.346 mg/mL and 0.336 mg/mL	> 10%	>30%	AUC0-24 [6]: 2.4431 µM·h and 0.3893 µM·h and 2.0924 µM·h and 3.4775 µM·h and 5.1195 µM·h and 2.2702 µM·h; AUC0-inf [6]: 2.5786 µM·h and 0.4006 µM·h and 2.1139 µM·h and 3.6031 µM·h and 5.3331 µM·h and 2.3063 µM·h; Cmax [6]: 336 nM and 99.8 nM and 532 nM and 600 nM and 552 nM and 718 nM
